Among the data in patent publication US8415378B2, “Isoxazol-3(2H)-one analogs as therapeutic agents” (AstraZeneca AB, priority 2009, dated 2013) are IC50 values, retold here.

SMILES strings stand for the structures.

T1 sequence (P00747 20-810 limits assumed): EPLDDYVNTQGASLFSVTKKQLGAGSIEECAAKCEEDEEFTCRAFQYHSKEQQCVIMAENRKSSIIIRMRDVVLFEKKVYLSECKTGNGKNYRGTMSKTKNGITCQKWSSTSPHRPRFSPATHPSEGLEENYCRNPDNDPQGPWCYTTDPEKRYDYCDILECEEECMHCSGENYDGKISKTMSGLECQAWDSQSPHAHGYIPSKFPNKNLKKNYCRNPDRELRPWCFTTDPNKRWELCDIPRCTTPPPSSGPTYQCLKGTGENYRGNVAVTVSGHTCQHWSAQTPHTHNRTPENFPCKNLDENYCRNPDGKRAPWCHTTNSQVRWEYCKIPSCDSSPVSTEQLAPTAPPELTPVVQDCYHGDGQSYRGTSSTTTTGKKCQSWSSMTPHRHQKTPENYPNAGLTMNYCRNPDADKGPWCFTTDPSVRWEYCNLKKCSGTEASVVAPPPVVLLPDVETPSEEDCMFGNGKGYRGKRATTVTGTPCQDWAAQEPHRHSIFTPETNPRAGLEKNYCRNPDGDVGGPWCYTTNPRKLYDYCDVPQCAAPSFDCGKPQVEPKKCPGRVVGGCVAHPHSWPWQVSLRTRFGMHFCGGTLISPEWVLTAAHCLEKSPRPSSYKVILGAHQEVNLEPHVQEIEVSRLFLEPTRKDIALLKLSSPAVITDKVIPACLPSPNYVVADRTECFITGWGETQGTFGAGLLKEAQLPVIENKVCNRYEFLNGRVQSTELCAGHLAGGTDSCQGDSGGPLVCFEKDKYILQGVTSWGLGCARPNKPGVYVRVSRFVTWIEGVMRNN

This test has as its target T1, human Glu-plasminogen (Homo sapiens, UniProt P00747).
T1 construct: human Glu-plasminogen; purchased Chromogenix, Italy
The experiment in a line: Clot-lysis buffer assay. It counts as biochemical. On the procedure:
The assay method used for evaluating biological activity of the compounds according to the invention was Clot-lysis buffer assay.
Tested substance were added to the reaction mixture in 10% DMSO. Reaction was started by the addition of thrombin.
Measured according to the Clot-lysis buffer assay described above.
As to `O=c1cc([C@@H]2CCN[C@@H](c3ccc(Cl)cc3)C2)o[nH]1` (relative stereo) [Example 29, 5-(Trans-2-(4-chlorophenyl)piperidin-4-yl)isoxazol-3(2H)-one], the IC50 amounted to 24 µM. This counts as double-digit micromolar.
The result for `O=c1cc([C@H]2CCN[C@@H](CC3CCC(F)(F)CC3)C2)o[nH]1` [Example 89, 5-((2S,4S)-2-((4,4-Difluorocyclohexyl)methyl)piperidin-4-yl)isoxazol-3(2H)-one] reads 1.5 µM.
The same measure for `O=c1cc([C@H]2CCN[C@@H](Cc3ccc(C(F)(F)F)c(F)c3)C2)o[nH]1` [Example 140, 5-((2R,4S)-2-(3-Fluoro-4-(trifluoromethyl)benzyl)piperidin-4-yl)isoxazol-3(2H)-one]: 0.6 µM; for `O=c1cc([C@@H]2CCN[C@@H](c3ccc(F)cc3Cl)C2)o[nH]1` (relative stereo) [Example 48, 5-(Trans-2-(2-chloro-4-fluorophenyl)piperidin-4-yl)isoxazol-3(2H)-one]: 44.3 µM; for `O=c1cc([C@@H]2CCN[C@H](c3cc(Cl)cc(Cl)c3)C2)o[nH]1` [Example 56, 5-((2S,4R)-2-(3,5-Dichlorophenyl)piperidin-4-yl)isoxazol-3(2H)-one]: 43.8 µM.
The same measure for `O=c1cc([C@@H]2CCN[C@@H](Cc3ccc(C(F)(F)F)cc3)C2)o[nH]1` [Example 106, 5-((2R,4R)-2-(4-(Trifluoromethyl)benzyl)piperidin-4-yl)isoxazol-3(2H)-one]: 88.8 µM; for `O=c1cc([C@H]2CCN[C@@H](Cc3ccc(F)c(F)c3)C2)o[nH]1` [Example 120, 5-((2R,4S)-2-(3,4-Difluorobenzyl)piperidin-4-yl)isoxazol-3(2H)-one]: 0.89 µM.
On to `Cn1nnc([C@H]2C[C@H](c3cc(=O)[nH]o3)CCN2)n1` (relative stereo) [Example 82, 5-(Trans-2-(2-methyl-2H-tetrazol-5-yl)piperidin-4-yl)isoxazol-3(2H)-one], for which half-maximal inhibition (IC50) required 20.3 µM. This IC50 is about 23-fold higher than that of the compound before.
For `CC(C)(C)c1cc(C[C@@H]2C[C@H](c3cc(=O)[nH]o3)CCN2)cc(C(C)(C)C)c1` [Example 147, 5-((2S,4R)-2-(3,5-Di-tert-butylbenzyl)piperidin-4-yl)isoxazol-3(2H)-one], half-maximal inhibition (IC50) was put at 44.6 µM.
Turning to `O=c1cc([C@H]2CCN[C@H](c3ccc(Cl)cc3Cl)C2)o[nH]1` [Example 53, 5-((2S,4S)-2-(2,4-Dichlorophenyl)piperidin-4-yl)isoxazol-3(2H)-one], the IC50 worked out at 72.9 µM.
The result for `O=c1cc([C@H]2CCN[C@@H](c3ccc(F)c(F)c3)C2)o[nH]1` [Example 23, 5-((2R,4S)-2-(3,4-Difluorophenyl)piperidin-4-yl)isoxazol-3(2H)-one] reads 1 µM.
The compound `O=c1cc([C@@H]2CCN[C@@H](COC3CCCCC3)C2)o[nH]1` (relative stereo) [Example 86, 5-(Trans-2-(cyclohexyloxymethyl)piperidin-4-yl)isoxazol-3(2H)-one] registered an IC50 of 15.6 µM.
Compound `O=c1cc([C@H]2CCN[C@@H](Cc3cccc(C(F)(F)F)c3)C2)o[nH]1` [Example 107, 5-((2R,4S)-2-(3-(Trifluoromethyl)benzyl)piperidin-4-yl)isoxazol-3(2H)-one] came in with an IC50 of 1.7 µM. Compared with the last compound, the IC50 is about 9.2-fold lower.
The result for `O=c1cc([C@@H]2CCN[C@@H](Cc3ccc(C(F)(F)F)c(F)c3)C2)o[nH]1` (relative stereo) [Example 142, 5-(Trans-2-(3-fluoro-4-(trifluoromethyl)benzyl)piperidin-4-yl)isoxazol-3(2H)-one] reads 1.8 µM.
The same measure for `O=c1cc([C@@H]2CCN[C@@H](Cc3ccc(F)c(F)c3)C2)o[nH]1` [Example 123, 5-((2R,4R)-2-(3,4-Difluorobenzyl)piperidin-4-yl)isoxazol-3(2H)-one]: 147 µM; for `Cc1cc(C(F)(F)F)ccc1[C@H]1C[C@@H](c2cc(=O)[nH]o2)CCN1` [Example 72, 5-((2R,4S)-2-(2-Methyl-4-(trifluoromethyl)phenyl)piperidin-4-yl)isoxazol-3(2H)-one]: 0.6 µM; for `Cc1cc([C@H]2C[C@@H](c3cc(=O)[nH]o3)CCN2)ccc1C(F)(F)F` [Example 67, 5-((2R,4S)-2-(3-Methyl-4-(trifluoromethyl)phenyl)piperidin-4-yl)isoxazol-3(2H)-one]: 1.3 µM.
As for `O=c1cc([C@H]2CCN[C@@H](Cc3ccc(OC(F)(F)F)cc3)C2)o[nH]1` [Example 113, 5-((2R,4S)-2-(4-(Trifluoromethoxy)benzyl)piperidin-4-yl)isoxazol-3(2H)-one], the IC50 turned out to be 1.1 µM.
The same measure for `O=c1cc([C@H]2CCN[C@@H](C(F)F)C2)o[nH]1` [Example 87, 5-((2R,4S)-2-(Difluoromethyl)piperidin-4-yl)isoxazol-3(2H)-one]: 10.7 µM; for `O=c1cc([C@@H]2CCN[C@H](c3ccc(C(F)(F)F)c(F)c3)C2)o[nH]1` [Example 76, 5-((2S,4R)-2-(3-Fluoro-4-(trifluoromethyl)phenyl)piperidin-4-yl)isoxazol-3(2H)-one]: 190 µM; for `Cn1nnnc1[C@H]1C[C@@H](c2cc(=O)[nH]o2)CCN1` [Example 83, 5-((2R,4S)-2-(1-Methyl-1H-tetrazol-5-yl)piperidin-4-yl)isoxazol-3(2H)-one]: 42 µM.
The same measure for `O=c1cc([C@@H]2CCN[C@H](Cc3cc(F)ccc3F)C2)o[nH]1` [Example 125, 5-((2S,4R)-2-(2,5-Difluorobenzyl)piperidin-4-yl)isoxazol-3(2H)-one]: 92.9 µM; for `O=c1cc([C@@H]2CCN[C@@H](c3cccc(C(F)(F)F)c3)C2)o[nH]1` (relative stereo) [Example 32, 5-(Trans-2-(3-(trifluoromethyl)phenyl)piperidin-4-yl)isoxazol-3(2H)-one]: 23.6 µM.
The result for `O=c1cc([C@H]2CCN[C@@H](c3ccc(C(F)(F)F)c(F)c3)C2)o[nH]1` [Example 75, 5-((2R,4S)-2-(3-Fluoro-4-(trifluoromethyl)phenyl)piperidin-4-yl)isoxazol-3(2H)-one] reads 3.1 µM.
Consider `Cn1nnc([C@H]2C[C@@H](c3cc(=O)[nH]o3)CCN2)n1` [Example 81, 5-((2R,4S)-2-(2-Methyl-2H-tetrazol-5-yl)piperidin-4-yl)isoxazol-3(2H)-one], for which 1.6 µM corresponded to half-maximal inhibition (IC50). Against the preceding compound, the IC50 is about 1.9-fold lower.
The same measure for `O=c1cc([C@H]2CCN[C@@H](c3cc(F)c(C(F)(F)F)c(F)c3)C2)o[nH]1` [Example 70, 5-((2R,4S)-2-(3,5-Difluoro-4-(trifluoromethyl)phenyl)piperidin-4-yl)isoxazol-3(2H)-one]: 2.5 µM; for `O=c1cc([C@@H]2CCN[C@H](Cc3ccccc3C(F)(F)F)C2)o[nH]1` [Example 111, 5-((2S,4R)-2-(2-(trifluoromethyl)benzyl)piperidin-4-yl)isoxazol-3(2H)-one]: 31.3 µM; for `O=c1cc([C@@H]2CCN[C@@H](c3ccc(C(F)(F)F)cc3)C2)o[nH]1` (relative stereo) [Example 35, 5-(Trans-2-(4-(trifluoromethyl)phenyl)piperidin-4-yl)isoxazol-3(2H)-one]: 14.4 µM.
`O=c1cc([C@@H]2CCN[C@@H](c3ccc(C(F)(F)F)cc3F)C2)o[nH]1` (relative stereo) [Example 74, 5-(Trans-2-(2-fluoro-4-(trifluoromethyl)phenyl)piperidin-4-yl)isoxazol-3(2H)-one] registered an IC50 of 52.2 µM.
The result for `O=c1cc([C@H]2CCN[C@H](Cc3ccc(F)c(F)c3)C2)o[nH]1` [Example 122, 5-((2S,4S)-2-(3,4-Difluorobenzyl)piperidin-4-yl)isoxazol-3(2H)-one] reads 4.4 µM; that for `O=c1cc([C@@H]2CCN[C@@H](Cc3ccc(Cl)cc3)C2)o[nH]1` (relative stereo) [Example 116, 5-(Trans-2-(4-chlorobenzyl)piperidin-4-yl)isoxazol-3(2H)-one], 5.6 µM; that for `O=c1cc([C@H]2CCN[C@@H](c3ccc(C(F)(F)F)cc3)C2)o[nH]1` [Example 33, 5-((2R,4S)-2-(4-(Trifluoromethyl)phenyl)piperidin-4-yl)isoxazol-3(2H)-one], 1.43 µM.
The result for `CC(C)(C)c1ccc([C@H]2C[C@@H](c3cc(=O)[nH]o3)CCN2)s1` [Example 42, 5-((2R,4S)-2-(5-tert-Butylthiophen-2-yl)piperidin-4-yl)isoxazol-3(2H)-one] reads 34.9 µM.
`O=c1cc([C@H]2CCN[C@@H](c3cc(F)c(F)c(F)c3)C2)o[nH]1` [Example 60, 5-((2R,4S)-2-(3,4,5-Trifluorophenyl)piperidin-4-yl)isoxazol-3(2H)-one] yielded an IC50 of 1.9 µM.
The same measure for `O=c1cc([C@@H]2CCN[C@H](Cc3ccc(F)c(F)c3)C2)o[nH]1` [Example 121, 5-((2S,4R)-2-(3,4-Difluorobenzyl)piperidin-4-yl)isoxazol-3(2H)-one]: 120 µM; for `CC(C)(C)c1ccc(C[C@H]2C[C@@H](c3cc(=O)[nH]o3)CCN2)cc1` [Example 12, 5-((2R,4S)-2-(4-tert-Butylbenzyl)piperidin-4-yl)isoxazol-3(2H)-one]: 2.25 µM.
The compound `O=c1cc([C@@H]2CCN[C@@H](c3ccc(F)c(F)c3)C2)o[nH]1` (relative stereo) [Example 24, 5-(Trans-2-(3,4-difluorophenyl)piperidin-4-yl)isoxazol-3(2H)-one] returned an IC50 of 42.8 µM.
`O=c1cc([C@@H]2CCN[C@H](CCc3ccc(F)cc3)C2)o[nH]1` [Example 93, 5-((2R,4R)-2-(4-Fluorophenethyl)piperidin-4-yl)isoxazol-3(2H)-one] yielded an IC50 of 69.8 µM.
The result for `O=c1cc([C@H]2CCN[C@H](C3CCCCC3)C2)o[nH]1` [Example 80, 5-((2S,4S)-2-Cyclohexylpiperidin-4-yl)isoxazol-3(2H)-one] reads 44 µM; that for `O=c1cc([C@H]2CCN[C@@H](c3ccc(Cl)cc3F)C2)o[nH]1` [Example 45, 5-((2R,4S)-2-(4-Chloro-2-fluorophenyl)piperidin-4-yl)isoxazol-3(2H)-one], 2.35 µM.

The IC50 is the concentration needed to halve the response being measured. High values mean lower potency, low ones higher potency.
